Data: ChEMBL document CHEMBL4138123, “Design, synthesis and biological evaluation of novel pyrazolochalcones as potential modulators of PI3K/Akt/mTOR pathway and inducers of apoptosis in breast cancer cells” (Eur J Med Chem, 2017)

How the values were obtained:
Type in all cases: functional
MDA-MB-468 = assay: Cytotoxicity against human MDA-MB-468 cells assessed as cell growth at 0.01 uM after 48 hrs by sulforhodamine B assay relative to control; conditions: MDA-MB-468, 48 h, read-out: Activity
A498 = assay: Cytotoxicity against human A498 cells assessed as growth inhibition after 48 hrs by sulforhodamine B assay; conditions: A498, 48 h
SR [1] = assay: Cytotoxicity against human SR cells assessed as cell growth at 10 uM after 48 hrs by sulforhodamine B assay relative to control; conditions: read-out: Activity
SR [2] = assay: Cytotoxicity against human SR cells assessed as cell growth at 1 uM after 48 hrs by sulforhodamine B assay relative to control; conditions: read-out: Activity
UO-31 [3] = assay: Cytotoxicity against human UO31 cells assessed as cell growth at 10 uM after 48 hrs by sulforhodamine B assay relative to control; conditions: UO-31, 48 h, read-out: Activity
MDA-MB-435 = assay: Cytotoxicity against human MDA-MB-435 cells assessed as cell growth at 10 uM after 48 hrs by sulforhodamine B assay relative to control; conditions: MDA-MB-435, 48 h, read-out: Activity
UO-31 [4] = assay: Cytotoxicity against human UO31 cells assessed as cell growth at 100 uM after 48 hrs by sulforhodamine B assay relative to control; conditions: UO-31, 48 h, read-out: Activity
MOLT-4 = assay: Cytotoxicity against human MOLT4 cells assessed as cell growth at 0.01 uM after 48 hrs by sulforhodamine B assay relative to control; conditions: MOLT-4, 48 h, read-out: Activity
SN12C [5] = assay: Cytotoxicity against human SN12C cells assessed as cell growth at 0.01 uM after 48 hrs by sulforhodamine B assay relative to control; conditions: read-out: Activity
OVCAR-8 [6] = assay: Cytotoxicity against human OVCAR8 cells assessed as cell growth at 0.1 uM after 48 hrs by sulforhodamine B assay relative to control; conditions: OVCAR-8, 48 h, read-out: Activity
A549 [7] = assay: Cytotoxicity against human A549/ATCC cells assessed as growth inhibition after 48 hrs by sulforhodamine B assay; conditions: A549, 48 h
T47D = assay: Cytotoxicity against human T47D cells assessed as cell growth at 0.01 uM after 48 hrs by sulforhodamine B assay relative to control; conditions: read-out: Activity
SN12C [8] = assay: Cytotoxicity against human SN12C cells assessed as cell growth at 10 uM after 48 hrs by sulforhodamine B assay relative to control; conditions: read-out: Activity
NCI-H322M [9] = assay: Cytotoxicity against human NCI-H322M cells assessed as growth inhibition after 48 hrs by sulforhodamine B assay
RPMI-8226 [10] = assay: Cytotoxicity against human RPMI8226 cells assessed as cell growth at 0.01 uM after 48 hrs by sulforhodamine B assay relative to control; conditions: RPMI-8226, 48 h, read-out: Activity
MCF7 = assay: Cytotoxicity against human MCF7 cells assessed as growth inhibition after 48 hrs by sulforhodamine B assay; conditions: MCF7, 48 h
A549 [11] = assay: Cytotoxicity against human A549/ATCC cells assessed as cell growth at 10 uM after 48 hrs by sulforhodamine B assay relative to control; conditions: A549, 48 h, read-out: Activity
NCI/ADR-RES = assay: Cytotoxicity against human NCI/ADR-RES cells assessed as growth inhibition after 48 hrs by sulforhodamine B assay
SR [12] = assay: Cytotoxicity against human SR cells assessed as cell growth at 0.1 uM after 48 hrs by sulforhodamine B assay relative to control; conditions: read-out: Activity
SK-OV-3 = assay: Cytotoxicity against human SKOV3 cells assessed as growth inhibition after 48 hrs by sulforhodamine B assay; conditions: SK-OV-3, 48 h
NCI-H322M [13] = assay: Cytotoxicity against human NCI-H322M cells assessed as cell growth at 0.1 uM after 48 hrs by sulforhodamine B assay relative to control; conditions: read-out: Activity
K562 = assay: Cytotoxicity against human K562 cells assessed as cell growth at 10 uM after 48 hrs by sulforhodamine B assay relative to control; conditions: K562, 48 h, read-out: Activity
HOP-62 = assay: Cytotoxicity against human HOP62 cells assessed as growth inhibition after 48 hrs by sulforhodamine B assay; conditions: HOP-62, 48 h
RPMI-8226 [14] = assay: Cytotoxicity against human RPMI8226 cells assessed as cell growth at 100 uM after 48 hrs by sulforhodamine B assay relative to control; conditions: RPMI-8226, 48 h, read-out: Activity
HCC 2998 = assay: Cytotoxicity against human HCC2998 cells assessed as cell growth at 10 uM after 48 hrs by sulforhodamine B assay relative to control; conditions: HCC 2998, 48 h, read-out: Activity
CCRF-CEM [15] = assay: Cytotoxicity against human CCRF-CEM cells assessed as cell growth at 100 uM after 48 hrs by sulforhodamine B assay relative to control; conditions: read-out: Activity
NCI-H522 [16] = assay: Cytotoxicity against human NCI-H522 cells assessed as growth inhibition after 48 hrs by sulforhodamine B assay; conditions: NCI-H522, 48 h
M14 = assay: Cytotoxicity against human M14 cells assessed as cell growth at 100 uM after 48 hrs by sulforhodamine B assay relative to control; conditions: M14, 48 h, read-out: Activity
SK-MEL-5 = assay: Cytotoxicity against human SK-MEL-5 cells assessed as cell growth at 1 uM after 48 hrs by sulforhodamine B assay relative to control; conditions: SK-MEL-5, 48 h, read-out: Activity
SN12C [17] = assay: Cytotoxicity against human SN12C cells assessed as cell growth at 1 uM after 48 hrs by sulforhodamine B assay relative to control; conditions: read-out: Activity
786-0 = assay: Cytotoxicity against human 786-0 cells assessed as growth inhibition after 48 hrs by sulforhodamine B assay; conditions: 786-0, 48 h
CCRF-CEM [18] = assay: Cytotoxicity against human CCRF-CEM cells assessed as growth inhibition after 48 hrs by sulforhodamine B assay
OVCAR-3 = assay: Cytotoxicity against human OVCAR3 cells assessed as growth inhibition after 48 hrs by sulforhodamine B assay; conditions: OVCAR-3, 48 h
NCI-H522 [19] = assay: Cytotoxicity against human NCI-H522 cells assessed as cell growth at 0.1 uM after 48 hrs by sulforhodamine B assay relative to control; conditions: NCI-H522, 48 h, read-out: Activity
OVCAR-8 [20] = assay: Cytotoxicity against human OVCAR8 cells assessed as growth inhibition after 48 hrs by sulforhodamine B assay; conditions: OVCAR-8, 48 h
RXF 393 = assay: Cytotoxicity against human RXF393 cells assessed as growth inhibition after 48 hrs by sulforhodamine B assay; conditions: RXF 393, 48 h
SN12C [21] = assay: Cytotoxicity against human SN12C cells assessed as cell growth at 100 uM after 48 hrs by sulforhodamine B assay relative to control; conditions: read-out: Activity

## COc1ccc(-c2cc(/C=C/C(=O)c3ccc(OC)c(OC)c3)[nH]n2)cc1
MDA-MB-468
  growth at 0.01 µM: 87%
A498
  GI50: 1.42 µM
  LC50: 8.87 µM
  TGI: 3.55 µM
SR [1]
  growth at 10 µM: -29%
SR [2]
  growth at 1 µM: 39%
UO-31 [3]
  growth at 10 µM: -96%
MDA-MB-435
  growth at 10 µM: -64%
UO-31 [4]
  growth at 100 µM: -100%
MOLT-4
  growth at 0.01 µM: 105%
SN12C [5]
  growth at 0.01 µM: 95%
OVCAR-8 [6]
  growth at 0.1 µM: 89%
A549 [7]
  GI50: 1.88 µM
  LC50 (concentration giving 50% net cell kill): > 100 µM
  TGI: 5.95 µM
T47D
  growth at 0.01 µM: 95%
SN12C [8]
  growth at 10 µM: -58%
NCI-H322M [9]
  GI50: 1.62 µM
  TGI: 4.92 µM
NCI-H322M [9]; read-out: LC50 (the source's name)
  CC50: 18.7 µM
RPMI-8226 [10]
  growth at 0.01 µM: 106%
MCF7
  GI50: 0.41 µM
  LC50: 5.11 µM
  TGI: 1.76 µM
A549 [11]
  growth at 10 µM: -23%
NCI/ADR-RES
  GI50: 3.44 µM
  LC50: > 100 µM
  TGI: 24.8 µM
SR [12]
  growth at 0.1 µM: 106%
SK-OV-3
  GI50: 5.56 µM
  LC50: 43.4 µM
  TGI: 17.1 µM
NCI-H322M [13]
  growth at 0.1 µM: 94%
K562
  growth at 10 µM: 1%
HOP-62
  GI50: 2.35 µM
  LC50: 35.3 µM
  TGI: 6.17 µM
RPMI-8226 [14]
  growth at 100 µM: -62%
HCC 2998
  growth at 10 µM: -68%
CCRF-CEM [15]
  growth at 100 µM: -47%
NCI-H522 [16]
  GI50: 0.41 µM
  LC50: 5.91 µM
  TGI: 1.39 µM
M14
  growth at 100 µM: -99%
SK-MEL-5
  growth at 1 µM: 88%
SN12C [17]
  growth at 1 µM: 80%
786-0
  GI50: 1.6 µM
  LC50: 5.96 µM
  TGI: 3.09 µM
CCRF-CEM [18]
  GI50: 1.34 µM
  LC50 (concentration killing 50% of cells): > 100 µM
  TGI: 4.14 µM
OVCAR-3
  GI50: 1.19 µM
  LC50: 5.15 µM
  TGI: 2.47 µM
NCI-H522 [19]
  growth at 0.1 µM: 111%
OVCAR-8 [20]
  GI50: 2.16 µM
  LC50: 57.6 µM
  TGI: 10.4 µM
RXF 393
  GI50: 1.39 µM
  LC50 (concentration killing 50% of cells): 6.2 µM
  TGI: 2.94 µM
SN12C [21]
  growth at 100 µM: -86%
